In the first series the target is T1, cytochrome P450 enzyme 1A2 (CYP1A2) (Homo sapiens, UniProt P05177).
T1 sequence (P05177 2-516): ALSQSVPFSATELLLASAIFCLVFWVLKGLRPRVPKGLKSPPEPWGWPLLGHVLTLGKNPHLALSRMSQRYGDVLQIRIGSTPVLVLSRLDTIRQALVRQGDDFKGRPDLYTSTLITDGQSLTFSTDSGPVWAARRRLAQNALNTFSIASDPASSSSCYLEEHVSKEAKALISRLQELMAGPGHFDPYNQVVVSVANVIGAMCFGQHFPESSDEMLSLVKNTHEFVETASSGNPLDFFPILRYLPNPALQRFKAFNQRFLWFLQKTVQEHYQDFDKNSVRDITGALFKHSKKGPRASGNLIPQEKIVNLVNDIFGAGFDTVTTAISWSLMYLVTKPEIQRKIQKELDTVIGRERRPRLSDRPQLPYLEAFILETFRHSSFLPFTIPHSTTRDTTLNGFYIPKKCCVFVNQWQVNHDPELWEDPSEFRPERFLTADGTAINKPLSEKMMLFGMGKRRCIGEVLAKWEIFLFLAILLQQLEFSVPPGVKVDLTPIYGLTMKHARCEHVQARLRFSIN
Kind of series: enzyme inhibition assay, method reported earlier. The series is classed as biochemical.
Conditions: not given
`CCC#Cc1ccc2ccc3cccc4ccc1c2c34` [1EEP, 1-butynylpyrene] returned an IC50 of 430 nM. Consider `CC#Cc1ccc2c(ccc3ccccc32)c1` [2MEPHEN, 2-(1-propynyl)phenanthrene], for which the IC50 was determined as 600 nM. With `C#CCOc1ccc(-c2ccccc2)cc1` [4BIPHPE, 4-biphenylpropargyl ether], the IC50 came out at 1550 nM. On the same count and under the same terms, with `C#CCOc1ccc2c(C)cc(=O)oc2c1` [4M7CPE, 4-methyl-7-coumarinpropargyl ether] the figure was 2010 nM; with `C#CCOc1ccc2c(C(F)(F)F)cc(=O)oc2c1` [4TFM7CPE, 4-(trifluoromethyl)-7-coumarinpropargyl ether], 700 nM; with `C#CCOc1ccc(-c2cc(=O)c3ccccc3o2)cc1` [4′FPE, 4′-flavonepropargyl ether], 1270 nM. Regarding `C#CCOc1ccc(-c2cc(=O)c3ccc4ccccc4c3o2)cc1` [4′αNFPE, α-naphthoflavone-4′-propargyl ether], the IC50 turned out to be 260 nM.

In the case of `C#CCOc1cccc2oc(-c3ccccc3)cc(=O)c12` [5FPE, 5-flavonepropargyl ether], the IC50 amounted to 380 nM.

For the molecule `C#CCOc1ccc2oc(-c3ccccc3)cc(=O)c2c1` [6FPE, 6-flavonepropargyl ether], the IC50 stood at 940 nM.

Turning to `C#CCOc1ccc2c(c1)OC(c1ccccc1)CC2=O` (stereo not drawn) [7FLAVANONEPE, 7FlavanonePE], the IC50 worked out at 970 nM. The molecule `C#CCOc1ccc2c(=O)cc(-c3ccccc3)oc2c1` [7FPE, 7-flavonepropargyl ether] registered an IC50 of 390 nM.

The series is the same for the next values; noted with them: read-out: EI.
As for `C#CCOCc1ccc(-c2ccccc2)cc1` [4BIPHMPE, 4-biphenyl methyl propargyl ether], the IC50 is 1840 nM.

Values taken from article PMC3371641 (SAR and QSAR in Environmental Research, 2011).
